Results on 2 molecules are retold here after publication PMC6519732 (Journal of medicinal chemistry, 2019).

A value given as a limit tells only on which side of the number the result lay.

For one data set, the system named is HepaRG cells. Put plainly: CellTiter-Blue cell viability assay, HepaRG. Particulars: 24 h of treatment, highest tested concentration (100 μM).
A short description of data set [1]: Metabolic stability in human liver microsomes. Type of data set: in vitro ADME. To be noted: for half-life at 2 μM: human, liver microsomes.
For another data set, the system named is HUH7 cells. To be noted: HUH7, 10 and 100 μM, 72 h.
The subject of a further data set is T24 cells. To be noted: T24, 10 and 100 μM, 72 h.
The next data set concerns MDA-MB-231 cells. Particulars: MDA-MB-231, 10 and 100 μM, 72 h.

For the molecule `O=C(NO)c1ccc(CN2c3ccccc3Sc3ccccc32)cc1` [Compound 1a, 4-[(10H-Phenothiazin-10-yl)methyl]-N-hydroxybenzamide], in the data set on HepaRG cells, the “Viability of HepaRG cells” value is on record as “not affected”. Also, in data set [1], the “human liver microsomal stability (in words)” value is reported as “moderate stability” and the half-life at 2 μM was above 40 min. In addition, the compound remaining entry in data set [1] (human liver microsomes, after 40 min incubation) is “about 77%”.
In the case of `O=C(NO)c1ccc(CN2c3ccccc3Sc3cccnc32)cc1` [Compound 7i, 4-[(10H-Benzo[b]pyrido[2,3-e][1,4]thiazin-10-yl)methyl]-N-hydroxybenzamide], the “effect on proliferation (in words)” value in the data set on HUH7 cells, in the data set with T24 cells and with MDA-MB-231 cells was “inhibited proliferation” each time. Besides, in the data set on HepaRG cells, the “Viability of HepaRG cells” value is given as “not affected”. The “human liver microsomal stability (in words)” value in data set [1] is reported as “metabolically quite stable”. The molecule also came in with a half-life at 2 μM in data set [1] above 40 min.

As usually defined, the half-life is the time needed for the level to fall by half in the phase considered. Read a high half-life as slow decline.
